# Source: US8957012B2, “Gamma secretase inhibitor for treatment of herpesvirus infection” (The Trustees of the University of Pennsylvania, priority 2006, dated 2015)
# “Also recorded” adds a separate entry of the source.
# Experiments:
# KSHV in BCBL1 cells = assay type: cell-based
# [1] = test system: KSHV-GFP Bac36 recombinant virus in Vero cells; assay type: cell-based
# BCBL1 cells [2] = experiment: Cell proliferation, trypan blue counting; assay type: cell-based; conditions: KSHV-positive cells; RPMI 1640 with 5% BGS; trypan blue counts
# Experimental: (§1) Each cell type (100,000 cells) was cultured in RPMI 1640 with 5% BGS. At each time point, cells were stained with trypan blue and counted. The results represent three independent experiments. (B) CFSE staining showing mitosis of DG75 (left panel) and BCBL1 (right panel) cells. Five million cells were cultured in RPMI 1640 with 5% BGS and mock treated (red curves) or treated with γ-secretase inhibitor at 20 μM (blue curves). At 48 h post treatment, cells were harvested for FACS analysis to determine mitotic activity. Gray and black curves represent negative and positive controls, respectively. The negative control was non-CFSE-staining cells, and the positive control was CFSE-staining but immediately fixed cells. (C) 7AAD staining analysis of mock treated (left panel) and KSHV-infected (right panel) primary B cells. Two million primary B cells were mock treated or KSHV infected for 4 weeks and harvested for 7AAD staining. The percentages of dead and necrotic cells are shown. (D) Four-week KSHV-infected primary B cells were harvested and mock treated (left panel) or treated with γ-secretase inhibitor (right panel) for 5 days, and then cells were stained with 7AAD for FACS analysis.
# (§2) As was mentioned previously, aberrant Notch signaling is highly associated with oncogenesis. […] Cells stained with CFSE followed by treatment with the γ-secretase inhibitor for 48 h were monitored by FACS.
# DG75 cells [3] = experiment: Cell proliferation, trypan blue counting; assay type: cell-based; conditions: KSHV-negative cells; RPMI 1640 with 5% BGS; trypan blue counts
# Experimental: as §1, §2
# BCBL1 cells [4] = experiment: CFSE staining of mitotic activity by FACS; assay type: cell-based; conditions: 20 μM, 48 h, vs untreated cells
# Experimental: as §1, §2
# DG75 cells [5] = experiment: CFSE staining of mitotic activity by FACS; assay type: cell-based; conditions: 20 μM, 48 h, treated vs untreated
# Experimental: as §1, §2
# [6] = test system: KSHV-infected primary B cells; experiment: 7AAD staining FACS analysis of cell death; assay type: cell-based; conditions: 4-week KSHV Bac36-infected primary B cells; treated 5 days; mock-treated 21.2%
# BCBL1 cells [7] = experiment: Cell cycle distribution, propidium iodide FACS; assay type: cell-based; conditions: 48 h post treatment
# Experimental: (§3) At 48 h post treatment, cells were harvested, fixed, and stained with propidium iodide. M2, M3, and M4 represent the G1, S, and G2/M populations of cells, respectively. M1 and M5 represent hypo- and hypernucleated cells, respectively. The percentage of cells in each different phase is indicated. Western blot analysis indicates the ICN levels in γ-secretase inhibitor-treated DG75 cells or BCBL1 cells. The relative density (RD) of ICN in each sample is also shown.
# (§4) As was shown in the above Examples; a γ-secretase inhibitor can dramatically slow down proliferation of the KSHV-positive BCBL1 cell line.
# DG75 cells [8] = experiment: Cell cycle distribution, propidium iodide FACS; assay type: cell-based; conditions: 48 h post treatment
# Experimental: as §3, §4
# [9] = test system: Notch1 ICN in BCBL1 cells; experiment: Western blot of ICN levels; assay type: cell-based; conditions: BCBL1 cells treated with inhibitor
# Experimental: as §3, §4
# [10] = test system: cyclin D1 in KSHV-positive cells; experiment: Western blot of cyclin D1 levels; conditions: KSHV-positive cells treated with inhibitor
# BCBL1 cells [11] = experiment: SCID mouse model of KSHV infected B lymphoma; conditions: listed as GSI
Structure (SMILES),RTA expression (Western blot) (KSHV in BCBL1 cells),production of infectious virions in supernatant (KSHV in BCBL1 cells),GFP signals in cells infected with supernatant (FACS) [1],proliferation of BCBL1 cells (BCBL1 cells [2]),proliferation of DG75 cells (DG75 cells [3]),mitotic activity (CFSE) (BCBL1 cells [4]),mitotic activity (CFSE) (DG75 cells [5]),cells that had undergone death (7AAD positive) [6],more cells arrested at G1 phase than mock-treated (BCBL1 cells [7]),changes in G1 phase of the cell cycle (DG75 cells [8]),ICN levels (Western blot) [9],cyclin D1 levels (Western blot) [10],"survival time of mice (BCBL1 cells [11]; SCID mice with BCBL1, 30 mg/kg daily, vs saline control)","progression of the tumor / formation of tumor and ascites (BCBL1 cells [11]; SCID mice, 10 million BCBL1 cells i.p., 30 mg/kg i.p. daily, vs saline, 30 mg/kg)","histopathology of BCBL1 tumor cells (BCBL1 cells [11]; tumor tissue of treated mice, vs saline mock treated)"
"CCCCCCCCCCCCCC(=O)O[C@@H]1[C@@H](C)[C@@]2(O)[C@@H](C=C(CO)C[C@]3(O)C(=O)C(C)=C[C@@H]23)[C@@H]2C(C)(C)[C@]12OC(C)=O [TPA, tetradecanoyl phorbol acetate]",strongly expressed,infectious virions were produced,GFP signals were detected,–,–,–,–,–,–,–,–,–,–,–,–
"C[C@H](NC(=O)Cc1cc(F)cc(F)c1)C(=O)N[C@H](C(=O)OC(C)(C)C)c1ccccc1 [γ-secretase inhibitor, N—[N-(3,5-difluorophenacetyl-L-alanyl)]-S-phenylglycine t-butyl ester]",–,–,–,dramatically slowed,minimally affected,dramatically decreased,relatively unchanged,about 45.4%,approximately 30%,no significant changes,decreased,depressed,significantly prolong; also recorded: significantly increase,greatly slow down; also recorded: greatly delayed,necrosis and apoptosis; also recorded: a lot of necrotic and apoptotic cells
